Measurements taken from article PMC11840923, “Kinetic and Thermodynamic Characterization of Human 4-Oxo-L-proline Reductase Catalysis” (Biochemistry, 2025).

Experiments:
[1] = target: T1, 4-oxo-L-proline reductase (HsBDH2) (Homo sapiens, UniProt Q9BUT1); test: ITC at […] °C, pH […] (number of sites fixed at one); also DSF; assay type: binding
T1 construct: gene BDH2

[2] = target: T1, 4-oxo-L-proline reductase (HsBDH2); test: ITC at […] °C, pH […] ([…] stoichiometry); also DSF and stopped-flow koff; assay type: binding

T1 sequence (Q9BUT1 whole entry): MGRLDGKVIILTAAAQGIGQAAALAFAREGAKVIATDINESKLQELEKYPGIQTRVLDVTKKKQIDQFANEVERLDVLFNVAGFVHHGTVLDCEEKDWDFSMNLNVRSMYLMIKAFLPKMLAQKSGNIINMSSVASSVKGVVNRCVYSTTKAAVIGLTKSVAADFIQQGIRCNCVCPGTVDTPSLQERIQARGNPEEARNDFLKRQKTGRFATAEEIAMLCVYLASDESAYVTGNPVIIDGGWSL

Kd [1] | Kd [2] | SMILES
29 µM |  | NC(=O)c1ccc[n+]([C@@H]2O[C@H](COP(=O)([O-])OP(=O)(O)OC[C@H]3O[C@@H](n4cnc5c(N)ncnc54)[C@H](O)[C@@H]3O)[C@@H](O)[C@H]2O)c1 [NAD^+]
 | 0.48 µM | NC(=O)C1=CN([C@@H]2O[C@H](COP(=O)(O)OP(=O)(O)OC[C@H]3O[C@@H](n4cnc5c(N)ncnc54)[C@H](O)[C@@H]3O)[C@@H](O)[C@H]2O)C=CC1 [NADH]
